Patent US11857529B2, “Methods for treating melanoma” (Olatec Therageutics, Inc., priority 2018, dated 2024)

What was measured:
B16F10 cells = test: B16F10 melanoma Matrigel plug tumor growth in mice fed standard or OLT1177 diet; assay type: in vivo; settings: OLT1177 diet 7.5 g/kg food (approx. 100 mg/kg/day) vs standard diet, 15 days after plug instillation; FIG. 1A
Procedure: (§1) C57BL/6J male mice, 6-8 weeks old (The Jackson Laboratory), were fed ad libitum with either a standard diet or a diet containing OLT1177® (dapansutrile) at a dose of 7.5 g per Kg of food for one week before subcutaneous instillation of a mixture of Matrigel and B16F10 cells (2×10^5) on the hind quarter of the mice. The dosage was approximately […] based on feed concentrations of 7.5 g/kg and food consumption of 4 g/day. These diets were continued after tumor implantation. Mice were sacrificed following 15 days from the plug instillation. Tissue and plasma were assessed after 15-day post-inoculation.

IL-6 = test: Plasma IL-6 in B16F10 tumor-bearing mice; assay type: in vivo; settings: OLT1177 diet vs standard diet, day 15, FIG. 1B
Procedure: (§2) Cytokine measurements. Cytokines in supernatants and cell lysates were measured by specific ELISA according to the manufacturer's instructions (DuoSet, R&D Systems, Minneapolis, MN).
as §1

G-CSF = test: Plasma G-CSF in B16F10 tumor-bearing mice; assay type: in vivo; settings: OLT1177 diet vs standard diet, day 15, FIG. 1C
Procedure: as §2, §1

IL-22 = test: Intracellular cytokine staining for IL-22 in spleen-derived T cells of tumor-bearing mice; assay type: in vivo; settings: OLT1177 diet vs standard diet, FIG. 1D
Procedure: as §1

IL-17 = test: Intracellular cytokine staining for IL-17 in spleen-derived T cells of tumor-bearing mice; assay type: in vivo; settings: OLT1177 diet vs standard diet, FIG. 1E
Procedure: as §1

VEGF = test: Plasma VEGF in tumor-bearing mice (tumor angiogenesis model); assay type: in vivo; settings: 7 days after plug, OLT1177 diet vs standard diet, FIG. 2A
Procedure: (§3) Tumor Angiogenesis Model. A mixture of Matrigel and B16F10 (2×10^5) was inoculated s.c. in the interscapular area of mice fed standard or OLT1177® diet. Following 7 days from the implantation, the plugs were removed, fixed in 4% paraformaldehyde, embedded in paraffin and sectioned (4 μm). Following, the sections were de-paraffinized, hydrated and stained with hematoxylin/eosin. Separate sections were subjected to heat-induced antigen retrieval (10 mM Citrate 0.05% Tween 20-pH 6.0) at 95° C. for 15 min. The sections were then placed in a humidified slide chamber, blocked for 1 h in 10% normal donkey serum (Jackson Immunologicals) and immunostained using an antibody for Von Willebrand factor (1:100, Millipore-Sigma, Burlington, MA) overnight at 4° C. for identification of new vessel formation. Anti-rabbit horseradish peroxidase enzyme (HRP) conjugated antibody (1:100, Jackson ImmunoResearch Laboratories, West Grove, PA) were used as secondary antibody for 2 hours at room temperature. […]
We next determined the ability of dapansutrile on inhibition of angiogenesis, an acquired ability of tumor cells to sustain a blood supply to nourish the growing tumor mass. […] After seven days to allow endothelial cell infiltration, plugs were removed, and plasma VEGF levels were determined.

[1] = system: Von Willebrand Factor stained endothelial cells; test: Tumor angiogenesis model: Von Willebrand Factor staining of B16F10 Matrigel plugs; assay type: in vivo, mice; settings: 7 days after implantation, OLT1177 diet vs standard diet; FIG. 2B
Procedure: as §3, with “temperature. Sections were then incubated for 5-10 min with HRP substrate as directed by the manufacturer's instructions (NovaRED substrate, Vector Laboratories, Burlingame, CA). Nuclei counterstaining were achieved using Mayer's Hematoxylin counterstaining (Thermo Fisher scientific Waltham, MA).” for “temperature.”

HUVEC = test: Angiogenesis assay (HUVEC) with melanoma conditioned media from 1205Lu cells; assay type: cell-based, human; settings: MCM from 1205Lu cells treated with OLT1177 vs MCM, 5 hours on Matrigel; FIG. 2C
Procedure: Cell culture. 1205Lu human melanoma cells were cultured in RPMI. Each was supplemented with 10% FBS, 100 units/mL penicillin, 0.1 mg/ml streptomycin. Cells were maintained in a humidified 5% CO2 atmosphere at 37 C. Human metastatic melanoma cell line 1205Lu were plated in RPMI at 2.5×10^5 per well in a 24-wells plate and allowed to adhere overnight. The following day, media was replaced with fresh RPMI 10% FBS with or without OLT1177® (dapansutrile). For the induction of cytokine production IL-1α (20 ng/ml) was used. OLT1177® was added 30 minutes prior to stimulation. Supernatants were collected, in both unstimulated and stimulated conditions at 24 hours.
Angiogenesis assay (HUVEC). HUVEC cells were seeded on media with no growth factors overnight. Cells were plated onto Matrigel (Corning) coated wells at 8×10^4 cells per well in a 24 well plate. Cells were then incubated for 5 hours in the presence of HUVEC complete media (control), MCM or MCM in which 1205Lu cells were treated with OLT1177®. MCM was added without dilution. Media was then removed and matrigel was preserved in PFA4%. Pictures were taking at 40× and branching points were counted using the cross method.
The effects of dapansutrile on angiogenesis was determined in vitro using human umbilical vein endothelial cells (HUVEC). […]

B16F10-GFP cells = test: Metastasis model: i.v. B16F10-GFP cells, GFP+ cell counts in lung and liver; assay type: in vivo, mice; settings: 21 days after i.v. B16F10-GFP, OLT1177 diet vs standard diet
Procedure: Metastasis Model. Metastasis formation was determined following tail intravenous (i.v.) injection of B16F10-GFP (1×10^6) cells in mice fed standard or OLT1177® diet. Before injection, the B16F10-GFP+ cells were sorted by flow cytometry and only the top brightest 10% cells were injected. Mice were sacrificed after 21 days from the cell injection and lung and liver were isolated and prepared for histology. Previous isolation, lungs were inflated with a solution containing 0.5% low melting agarose to avoid the tissue from collapsing. The presence of GFP-positive cell in the lung and liver of tumor bearing mice were performed by fluorescent microscopy. Tissue sections were stained with Alexa Fluor conjugated WGA, for membranes detection and DAPI, for nuclear stain. Images were acquired blindly and randomly across the tissue sections to obtain 7-10 images per tissue section. GFP positive cells were counted in each image and the results reported as number of GFP+ cells/field area (full chip field).
To determine whether dapansutrile reduces tissue invasion and metastasis, B16F10-GFP labeled cells were injected intravenously in mice fed with standard or OLT1177® diets.

[2] = system: PMN-MDSC (CD11b+Ly6G+Ly6Clo); test: Flow cytometry of PMN-MDSC in tumor-bearing mice; assay type: in vivo
Text: (§4) Flow cytometry analysis was used to assess the effect of NLRP3 inhibition on the activation and expansion of MDSCs, key mediators of tumor-associated immunosuppression. Bone marrow, spleen, and lymph node-derived cells were isolated and analyzed for the two main MDSCs subtypes: polymorphonuclear MDSCs (PMN-MDSC) expressing CD11b^+Ly6G^+Ly6C^lo and monocytic MDSCs (M-MDSC) expressing CD11b^+Ly6G^−Ly6C^hi. […] In the spleen, the level of PMN-MDSCs in tumor-bearing mice was increased compared to non-tumor-bearing mice (FIG. 4B). However, in mice fed the dapansutrile diet, we observed a restoration of the PMN-MDSC population at the level observed in the non-tumor-bearing mice (FIGS. 4A-4B). […] Treatment with dapansutrile prevented the tumor-induced effect on M-MDSCs expansion, normalizing the population to the non-tumor-bearing mice level (FIGS. 4D-4F).

[3] = system: M-MDSC (CD11b+Ly6G−Ly6Chi); test: Flow cytometry of M-MDSC in tumor-bearing mice; assay type: in vivo; settings: tumor-bearing mice on dapansutrile diet, relative to non-tumor-bearing mice
Text: as §4

[4] = healthy subjects, reference 9; cited from earlier work
NLRP3 inflammasome = NLRP3 inflammasome (Homo sapiens, UniProt Q96P20); settings: reference 9; cited from earlier work
Sequence of NLRP3 inflammasome (Q96P20 whole entry): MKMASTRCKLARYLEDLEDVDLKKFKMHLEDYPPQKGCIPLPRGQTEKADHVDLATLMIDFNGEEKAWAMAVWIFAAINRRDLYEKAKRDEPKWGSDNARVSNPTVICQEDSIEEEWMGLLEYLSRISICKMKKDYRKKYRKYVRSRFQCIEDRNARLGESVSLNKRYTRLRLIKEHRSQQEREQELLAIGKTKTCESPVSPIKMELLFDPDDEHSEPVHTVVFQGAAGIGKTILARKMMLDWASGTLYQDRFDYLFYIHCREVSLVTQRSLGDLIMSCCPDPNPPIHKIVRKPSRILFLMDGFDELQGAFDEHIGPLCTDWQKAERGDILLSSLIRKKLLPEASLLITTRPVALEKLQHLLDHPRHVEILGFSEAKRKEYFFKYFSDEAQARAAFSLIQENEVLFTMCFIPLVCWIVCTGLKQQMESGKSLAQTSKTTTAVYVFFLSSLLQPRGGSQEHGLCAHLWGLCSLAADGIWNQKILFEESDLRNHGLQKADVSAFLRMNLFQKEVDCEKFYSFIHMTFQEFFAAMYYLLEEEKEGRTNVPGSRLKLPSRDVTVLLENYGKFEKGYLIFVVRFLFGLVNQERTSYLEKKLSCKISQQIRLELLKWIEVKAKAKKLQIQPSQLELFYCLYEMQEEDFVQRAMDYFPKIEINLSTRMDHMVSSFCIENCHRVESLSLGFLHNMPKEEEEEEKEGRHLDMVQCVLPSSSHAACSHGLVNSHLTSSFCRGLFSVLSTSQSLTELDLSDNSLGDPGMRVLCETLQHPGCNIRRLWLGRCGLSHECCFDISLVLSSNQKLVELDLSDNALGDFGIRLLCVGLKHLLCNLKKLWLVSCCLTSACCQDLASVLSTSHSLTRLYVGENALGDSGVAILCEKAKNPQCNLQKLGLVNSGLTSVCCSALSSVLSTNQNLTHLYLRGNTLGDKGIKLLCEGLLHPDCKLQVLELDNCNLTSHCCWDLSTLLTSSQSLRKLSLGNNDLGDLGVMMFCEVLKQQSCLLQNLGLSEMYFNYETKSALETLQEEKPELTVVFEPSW

CS(=O)(=O)CCC#N [OLT1177®, 3-methanesulfonyl-propionitrile]
tumor volume (B16F10 cells): reduced
plasma levels of IL-6 (IL-6): significantly reduced
plasma levels of G-CSF (G-CSF): significantly reduced
IL-22 levels (ICCS, spleen-derived T cells) (IL-22): reduced
IL-17 (ICCS, spleen-derived T cells) (IL-17): No changes
circulating VEGF levels (VEGF): significantly lower
VWF stained endothelial cells in matrigel plugs (new vessel formation) [1]: reduced
HUVEC orientation (number of branching points / tubular-like structures) (HUVEC): significantly reduced
reduction of number of GFP+ cells in the lungs (B16F10-GFP cells; p<0.0001, FIG. 3A): 66%
change in number of GFP+ cells in the liver (B16F10-GFP cells; p<0.001, FIG. 3B): −60%
PMN-MDSCs in lymph nodes ([2]; dapansutrile diet vs standard diet, FIG. 4C): reduction
PMN-MDSC population in bone marrow ([2]; tumor-bearing mice on dapansutrile diet, relative to non-tumor-bearing mice, FIG. 4A): restoration
PMN-MDSC population in spleen ([2]; tumor-bearing mice on dapansutrile diet, relative to non-tumor-bearing mice, FIG. 4B): restoration
M-MDSC population in bone marrow ([3]; FIG. 4D): normalizing
M-MDSC population in spleen ([3]; FIG. 4E): normalizing
M-MDSC population in lymph nodes ([3]; FIG. 4F): normalizing
safety when orally administered [4]: safe
inhibition of the NLRP3 inflammasome (NLRP3 inflammasome): selectively inhibit
